Experimental data reported in US20250230462A1, “PPO2 POLYPEPTIDE HAVING TOLERANCE TO PPO INHIBITOR HERBICIDE AND APPLICATION” (priority 2022, published 2025).

Key:
[1] = test system: Arabidopsis thaliana overexpressing rice OsPPO2 WT or L422M/F442M; assay: Resistance test of Arabidopsis thaliana seeds overexpressing rice OsPPO2 on MS media containing PPO inhibitor herbicides; format: in vivo; settings: for tolerance of L422M/F442M overexpression relative to overexpression of the wild type PPO2: FIGS. 4-6, different concentrations; for resistance of plants at higher application concentrations: 2 μM, 1 μM and 1 μM (compound A, flumioxazin, saflufenacil respectively); for tolerance/resistance of plants compared with wild-type Arabidopsis thaliana: plants overexpressing OsPPO2 L422M/F442M and OsPPO2 WT, levels similar at 50 nM, 10 nM and 40 nM (compound A, flumioxazin, saflufenacil respectively)
Protocol: In order to rapidly verify the tolerance of rice OsPPO2 L422M/F442M mutants to different compounds, vectors for overexpressing wild-type and mutant rice PPO2 genes were constructed by conventional methods and overexpressed in Arabidopsis thaliana.
The obtained Arabidopsis thaliana seeds overexpressing rice OsPPO2 mutants and wild types were tested for resistance on MS media (petri dishes) that contained PPO inhibitor herbicidal compounds of various concentrations.

[2] = test system: rice seedlings edited at the OsPPO2 L422M/F442M site and wild-type strain; assay: Tolerance of gene-edited homozygous OsPPO2 L422M/F442M rice seedlings (4-leaf stage)
[3] = overexpressing OsPPO2 L422M/F442M

SMILES | crop safety when other PPO inhibiting herbicides were applied [2] | also measured
C#CCN1C(=O)COc2cc(F)c(N3C(=O)C4=C(CCCC4)C3=O)cc21 [flumioxazin] | excellent crop safety | tolerance of L422M/F442M overexpression relative to overexpression of the wild type PPO2 [1]: stronger tolerance; resistance of plants at higher application concentrations [1, 3]: still exhibited resistance; resistance of plants at higher application concentrations ([1]; overexpressing OsPPO2 WT): no difference from the wild-type Arabidopsis thaliana controls; tolerance/resistance of plants compared with wild-type Arabidopsis thaliana [1]: certain tolerance/resistance
CS(=O)(=O)NC(=O)c1cc(Oc2ccc(C(F)(F)F)cc2Cl)ccc1[N+](=O)[O-] [fomesafen] | excellent crop safety | 
CC(C)N(C)S(=O)(=O)NC(=O)c1cc(-n2c(=O)cc(C(F)(F)F)n(C)c2=O)c(F)cc1Cl [saflufenacil] | excellent crop safety | tolerance of L422M/F442M overexpression relative to overexpression of the wild type PPO2 [1]: stronger tolerance; resistance of plants at higher application concentrations [1, 3]: still exhibited resistance; resistance of plants at higher application concentrations ([1]; overexpressing OsPPO2 WT): no difference from the wild-type Arabidopsis thaliana controls; tolerance/resistance of plants compared with wild-type Arabidopsis thaliana [1]: certain tolerance/resistance
COC(=O)CCNC(=O)C(C)Sc1cc(-n2c(=O)cc(C(F)(F)F)n(C)c2=O)c(F)cc1Cl (stereo not shown) [tiafenacil] | excellent crop safety | 
Cc1nn(-c2cc(NS(C)(=O)=O)c(Cl)cc2Cl)c(=O)n1C(F)F [sulfentrazone] | excellent crop safety | 
C#CCN(C)c1c(C#N)cnn1-c1nn2c(c1Cl)CCCC2 [pyraclonil] | excellent crop safety | 
C#CCN1C(=O)C(F)(F)Oc2cc(F)c(-n3c(=O)n(C)c(=S)n(C)c3=O)cc21 [trifludimoxazin] | excellent crop safety | 
CCOc1cc(Oc2ccc(C(F)(F)F)cc2Cl)ccc1[N+](=O)[O-] [oxyfluorfen] | excellent crop safety | 
CCOC(=O)C1(C)CC(c2cc(-n3c(=O)cc(C(F)(F)F)n(C)c3=O)c(F)cc2Cl)=NO1 (stereo not shown) | excellent crop safety | 
CCOC(=O)COc1ncccc1Oc1cc(-n2c(=O)cc(C(F)(F)F)n(C)c2=O)c(F)cc1Cl [Epyrifenacil, [3-[2-chloro-4-fluoro-5-(1-methyl-6-trifluoromethyl-2,4-dioxo-1,2,3,4-tetrahydropyrimidin-3-yl)phenoxy]-2-pyridyloxy] ethyl acetate] | excellent crop safety | 
Cc1nn(-c2cc(CC(Cl)C(=O)O)c(Cl)cc2F)c(=O)n1C(F)F (stereo not shown) [carfentrazone] | excellent crop safety | 
